Results: article PMC11080019, “Synthesis and Biological Profiling of Quinolino-Fused 7-Deazapurine Nucleosides” (ACS Omega, 2024)
Counter-ions that a name gives are not always drawn.

Target: T1, T7 RNA polymerase (Escherichia phage T7, UniProt P00573)
T1 construct: purchased New England Biolabs
Assay: In vitro transcription (IVT) with T7 RNA polymerase, 35DNA_A7 template
Type: biochemical
Settings: 7.5 mM NTPs, 37 °C, 16 h, 35-mer RNA with seven modifications
Experimental: A^QTP was then used as a substrate for the T7 RNA polymerase in the in vitro transcription (IVT) experiments.[30] We used 35DNA_A7 DNA template encoding for 35-mer RNA containing seven A^Q modifications (Table 4). We used the T7 High Yield RNA Synthesis Kit with a high concentration of NTPs (7.5 mM each) but without any further additives. The reaction time at 37 °C was 16 h. The positive control experiment was performed with all four natural NTPs giving nonmodified transcript 35RNA_A7 (Figure 2, lane 2). The negative control contained only the natural CTP, GTP, and UTP in the absence of ATP (Figure 2, lane 3). The real IVT experiment was performed with A^QTP and three natural NTPs (Figure 2, lane 4). The transcription products were visualized by denaturing 20% denaturing PAGE (Figure 2) and characterized by LC–MS (see Figures S1 and S2 in the SI). […]
Aliquots of the first three reactions (50 ng) were separated by denaturating PAGE (20%) with urea at 23 mV for 1 h and visualized by fluorescence imaging.
Aliquots of the positive control (35RNA_A7) and the modified RNA (35RNA_A^Q7) were analyzed by UPLC-ESI-MS confirming the full transcription without any misincorporation (see Figures S1 and S2 in Supporting Information).

T1 sequence (P00573 whole entry): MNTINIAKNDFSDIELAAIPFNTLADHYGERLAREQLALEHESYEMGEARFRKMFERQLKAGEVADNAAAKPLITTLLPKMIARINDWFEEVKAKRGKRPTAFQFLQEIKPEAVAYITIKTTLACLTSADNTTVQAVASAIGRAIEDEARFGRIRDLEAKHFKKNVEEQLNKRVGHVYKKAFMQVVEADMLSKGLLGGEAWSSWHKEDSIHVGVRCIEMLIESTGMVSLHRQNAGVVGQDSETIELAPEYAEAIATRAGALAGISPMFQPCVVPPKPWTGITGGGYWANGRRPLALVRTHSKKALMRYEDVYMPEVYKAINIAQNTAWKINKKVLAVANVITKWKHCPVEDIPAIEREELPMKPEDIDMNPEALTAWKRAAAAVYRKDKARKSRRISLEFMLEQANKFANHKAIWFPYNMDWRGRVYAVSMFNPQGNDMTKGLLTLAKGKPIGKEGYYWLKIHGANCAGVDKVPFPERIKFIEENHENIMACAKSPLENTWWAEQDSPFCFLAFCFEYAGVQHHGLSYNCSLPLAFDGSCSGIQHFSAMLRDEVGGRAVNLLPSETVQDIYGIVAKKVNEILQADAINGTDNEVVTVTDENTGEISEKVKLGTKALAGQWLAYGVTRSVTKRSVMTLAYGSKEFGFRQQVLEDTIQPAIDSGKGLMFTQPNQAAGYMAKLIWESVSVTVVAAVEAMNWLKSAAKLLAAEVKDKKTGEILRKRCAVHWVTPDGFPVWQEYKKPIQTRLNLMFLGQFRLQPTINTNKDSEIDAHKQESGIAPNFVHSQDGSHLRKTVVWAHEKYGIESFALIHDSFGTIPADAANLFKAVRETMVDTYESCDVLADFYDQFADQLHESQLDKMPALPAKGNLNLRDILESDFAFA

SMILES: Nc1ncnc2c1c1c3cccnc3ccc1n2[C@@H]1O[C@H](COP(=O)(O)OP(=O)(O)OP(=O)(O)O)[C@@H](O)[C@H]1O [A^QTP, 11-Amino-7-(β-D-ribofuranosyl)pyrimido[5′,4′:4,5]pyrrolo[3,2-f]quinoline 5′-O-Triphosphate Bistriethylammonium Salt]
- substrate activity for T7 RNA polymerase in in vitro transcription (in words): moderately efficient substrate
